Results: US12030881B2, “Ion channel modulators” (PRAXIS PRECISION MEDICINES, INC., priority 2019, dated 2024)

Target: T1, INaL v1.6 (Nav late current, recombinant sodium channels) (Homo sapiens, UniProt Q9UQD0)
T1 construct: expressed in transfected cells; host or cells: HEK-293
Assay: PatchXpress electrophysiology, ATX-II evoked Nav late current (INaL) in HEK-293 cells expressing recombinant sodium channels
Assay type: cell-based
Conditions: HEK293, compound at 1 μM, late current evoked by ATX-II 300 nM, steady state block
Method: Functional characterization of exemplary compounds to modulate voltage gated sodium currents was accomplished using the PatchXpress™ high throughput electrophysiology platforms (Molecular Devices, Sunnyvale, CA). HEK-293 cells expressing recombinant sodium channels were grown in DMEM/high-glucose Dulbecco's modified, 10% FBS, 2 mM sodium pyruvate, and G418. Nav channel expressing cells were grown to 50%-80% confluency and harvested by trypsinization. Trypsinized cells were washed and resuspended in extracellular buffer at a concentration of 1×10^6 cells/ml. The onboard liquid handling facility of the PatchXpress was used for dispensing cells and application of test compounds. Nav late currents were evoked by the application of ATX-II, 300 nM. Currents were evoked by depolarizing pulses to 0 mV for 200 ms from a non-inactivating holding potential (e.g., −120 mV to −150 mV) at a frequency of 0.1 Hz. Late current amplitude and stability were determined by analyzing the mean current amplitude over the 175-195 msec region of the 200 msec test pulse. Following steady state block with exemplary compounds (e.g., as described herein) at 1 μM, a Na free solution containing an impermeant cation (e.g., Choline or NDMG) was added for determination of the 0 current level. Late current amplitudes for each test condition were determined from the mean of the 175-195 msec region of the 200 msec test pulse. Percent inhibition of steady state currents was calculated as (compound-baseline)/(control-baseline)*100, where control represents INaL recorded in the absence of compound.

T1 sequence (Q9UQD0 whole entry): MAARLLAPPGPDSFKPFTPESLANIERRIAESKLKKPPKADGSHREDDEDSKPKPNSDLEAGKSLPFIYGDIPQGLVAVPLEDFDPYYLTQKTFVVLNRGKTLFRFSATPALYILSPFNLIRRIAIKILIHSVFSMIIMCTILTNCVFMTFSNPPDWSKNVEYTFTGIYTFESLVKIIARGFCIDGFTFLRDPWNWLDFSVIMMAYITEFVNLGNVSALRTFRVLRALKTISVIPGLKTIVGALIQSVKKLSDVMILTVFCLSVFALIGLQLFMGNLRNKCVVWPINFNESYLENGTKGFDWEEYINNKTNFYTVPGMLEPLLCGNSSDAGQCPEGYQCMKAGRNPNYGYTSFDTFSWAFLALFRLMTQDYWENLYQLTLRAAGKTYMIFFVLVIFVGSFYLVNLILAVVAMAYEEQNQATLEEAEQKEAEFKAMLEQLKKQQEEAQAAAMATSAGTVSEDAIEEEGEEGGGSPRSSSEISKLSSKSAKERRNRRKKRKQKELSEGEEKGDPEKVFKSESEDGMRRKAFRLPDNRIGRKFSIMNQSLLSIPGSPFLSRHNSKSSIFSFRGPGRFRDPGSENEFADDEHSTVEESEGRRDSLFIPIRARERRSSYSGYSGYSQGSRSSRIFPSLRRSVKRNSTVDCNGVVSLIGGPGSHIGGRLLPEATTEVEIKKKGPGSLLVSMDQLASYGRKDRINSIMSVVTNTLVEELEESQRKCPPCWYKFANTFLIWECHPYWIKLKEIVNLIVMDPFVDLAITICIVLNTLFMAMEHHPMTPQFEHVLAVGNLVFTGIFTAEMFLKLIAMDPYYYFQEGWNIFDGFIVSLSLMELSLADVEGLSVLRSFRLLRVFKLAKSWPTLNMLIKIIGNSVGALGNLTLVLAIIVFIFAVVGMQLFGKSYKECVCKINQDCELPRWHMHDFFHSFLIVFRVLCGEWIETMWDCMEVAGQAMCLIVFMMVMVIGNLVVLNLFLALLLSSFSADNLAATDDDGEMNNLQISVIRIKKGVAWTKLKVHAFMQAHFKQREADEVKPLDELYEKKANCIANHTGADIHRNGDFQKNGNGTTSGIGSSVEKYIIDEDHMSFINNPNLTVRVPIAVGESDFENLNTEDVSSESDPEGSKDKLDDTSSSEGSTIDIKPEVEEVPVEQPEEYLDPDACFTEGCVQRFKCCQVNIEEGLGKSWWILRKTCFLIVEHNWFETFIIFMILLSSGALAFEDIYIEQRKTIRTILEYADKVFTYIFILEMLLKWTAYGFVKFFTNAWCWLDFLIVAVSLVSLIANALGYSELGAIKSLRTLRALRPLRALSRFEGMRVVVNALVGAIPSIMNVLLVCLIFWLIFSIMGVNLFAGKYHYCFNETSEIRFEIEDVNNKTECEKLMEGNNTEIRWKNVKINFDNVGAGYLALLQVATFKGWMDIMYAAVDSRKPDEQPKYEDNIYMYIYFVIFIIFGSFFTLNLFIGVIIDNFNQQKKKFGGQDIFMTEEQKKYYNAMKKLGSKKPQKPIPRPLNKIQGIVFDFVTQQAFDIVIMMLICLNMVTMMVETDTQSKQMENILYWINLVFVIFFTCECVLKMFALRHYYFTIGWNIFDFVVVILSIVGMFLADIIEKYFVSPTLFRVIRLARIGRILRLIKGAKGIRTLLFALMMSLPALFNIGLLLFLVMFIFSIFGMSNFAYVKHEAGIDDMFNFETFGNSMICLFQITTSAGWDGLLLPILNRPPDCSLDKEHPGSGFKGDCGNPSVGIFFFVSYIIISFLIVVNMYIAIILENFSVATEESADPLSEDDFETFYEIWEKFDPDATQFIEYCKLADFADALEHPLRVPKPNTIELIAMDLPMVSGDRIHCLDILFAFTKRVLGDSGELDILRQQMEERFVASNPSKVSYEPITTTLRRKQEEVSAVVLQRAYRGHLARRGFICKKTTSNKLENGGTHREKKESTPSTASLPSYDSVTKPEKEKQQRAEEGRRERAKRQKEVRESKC

SMILES | inhibition at 1 µM [%]
C[C@H](Oc1ncc(-c2ccc3nnc(C(F)(F)F)n3c2)cc1F)C(F)(F)F [Example 1, 6-[5-fluoro-6-[(1S)-2,2,2-trifluoro-1-methyl-ethoxy]-3-pyridyl]-3-(trifluoromethyl)-[1,2,4]triazolo[4,3-a]pyridine] | > 75
C[C@@H](Oc1ncc(-c2ccc3nnc(C(F)F)n3c2)cc1F)C(F)(F)F [Example 3, 3-(difluoromethyl)-6-[5-fluoro-6-[(1R)-2,2,2-trifluoro-1-methyl-ethoxy]-3-pyridyl]-[1,2,4]triazolo[4,3-a]pyridine] | > 75
Fc1cc(-c2ccc3nnc(C(F)(F)F)n3c2)cnc1OC1(C(F)(F)F)CCC1 [Example 7, 6-[5-fluoro-6-[1-(trifluoromethyl)cyclobutoxy]-3-pyridyl]-3-(trifluoromethyl)-[1,2,4]triazolo[4,3-a]pyridine] | > 75
C[C@@H](Oc1ncc(-c2ccc3nnc(C(F)(F)F)n3c2)cc1F)C(F)(F)F [Example 2, 6-[5-fluoro-6-[(1R)-2,2,2-trifluoro-1-methyl-ethoxy]-3-pyridyl]-3-(trifluoromethyl)-[1,2,4]triazolo[4,3-a]pyridine] | > 75
C[C@H](Oc1ncc(-c2ccc3nnc(C(F)F)n3c2)cc1F)C(F)(F)F [Example 4, 3-(difluoromethyl)-6-[5-fluoro-6-[(1S)-2,2,2-trifluoro-1-methyl-ethoxy]-3-pyridyl]-[1,2,4]triazolo[4,3-a]pyridine] | > 75
CC(C)(Oc1ncc(-c2ccc3nnc(C(F)F)n3c2)cc1F)C(F)(F)F [Example 5, 3-(difluoromethyl)-6-[5-fluoro-6-(2,2,2-trifluoro-1,1-dimethyl-ethoxy)-3-pyridyl]-[1,2,4]triazolo[4,3-a]pyridine] | > 75
Fc1cc(-c2ccc3nnc(C(F)(F)F)n3c2)cnc1OCC(F)(F)F [Example 10, 6-[5-fluoro-6-(2,2,2-trifluoroethoxy)-3-pyridyl]-3-(trifluoromethyl)-[1,2,4]triazolo[4,3-a]pyridine] | > 75
CC(C)(Oc1ncc(-c2ccc3nnc(C(F)(F)F)n3c2)cc1F)C(F)(F)F [Example 6, 6-[5-fluoro-6-(2,2,2-trifluoro-1,1-dimethyl-ethoxy)-3-pyridyl]-3-(trifluoromethyl)-[1,2,4]triazolo[4,3-a]pyridine] | > 75
Fc1cc(-c2ccc3nnc(C(F)F)n3c2)cnc1OCC(F)(F)F [Example 9, 3-(difluoromethyl)-6-[5-fluoro-6-(2,2,2-trifluoroethoxy)-3-pyridyl]-[1,2,4]triazolo[4,3-a]pyridine] | 50 to 75
Fc1cc(-c2ccc3nnc(C(F)(F)F)n3c2)cnc1OC1(C(F)(F)F)COC1 [Example 8, 6-[5-fluoro-6-[3-(trifluoromethyl)oxetan-3-yl]oxy-3-pyridyl]-3-(trifluoromethyl)-[1,2,4]triazolo[4,3-a]pyridine] | 50 to 75
